Test results published in patent publication US5221616A, “Prevention of spontaneous complement activation in mammalian biological fluids” (Quidel Corporation, priority 1988, dated 1993).

Tests used:
[1] = target: T1, C3 (Homo sapiens, UniProt P01024); test: polyhydroxyl compounds in Buffer B mixed with EDTA-NHP: iC3b and C3d,g/iC3b fragment EIA; format: biochemical; conditions: final concentration 2M, 22° C. for 48 hr
T1 construct: 250 μL of freshly drawn EDTA-normal human plasma (EDTA-NHP); from tissue; host or cells: normal human blood plasma (EDTA plasma; in A12 also citrate and heparin plasma)
Experimental: (§1) An extensive series of experiments were conducted to examine the ability of a large variety of polyhydroxyl compounds to prevent the spontaneous activation of C in EDTA-NHP during in vitro storage at 22° C for 48 hr. EDTA-NHP was mixed with an equal volume of Buffer B containing the polyhydroxyl compound to be tested. In these experiments Buffer B consisted of 40 mM EDTA and 30 IU sodium heparin/mL dissolved in deionized water, pH 7.2. The final concentration of polyhydroxyl compound dissolved in Buffer B varied for each compound due to differences in solubility. For each set of experiments, EDTA-NHP was also diluted and mixed with an equal volume of PBS (untreated control). The EDTA-NHP samples mixed with each polyhydroxyl compound dissolved in Buffer B and the corresponding untreated controls were incubated at 22° C. for 48 hr, stored at -70° C. and subsequently assayed for C4d, iC3b, C3d,g/iC3b and Bb complement fragment levels as well as for circulating immune complex levels using the Raji Cell Replacement EIA. […] This conclusion was based upon the iC3b percent protection values determined for each of the polyhydroxyl compounds (treated samples) as listed in FIG. 14.
(§2) The concentrations, expressed as μg analyte/mL, of a number of different activation products of spontaneous complement activation were measured in the course of these experiments. In an effort to normalize the data obtained from the various determinations so that the results from different assays could be directly compared to one another, a percent protection value was calculated for each analyte measured. The precent protection values were calculated by dividing the μg analyte/mL in the non-incubated, time-zero control sample by the μg analyte/mL in the experimental sample, multiplied by 100%. A percent protection value of 70 to 130% for any given analyte measured in an experimental sample was considered to indicate that the invention formulation tested was fully effective at providing protection against the occurrence of spontaneous complement activation. Ideally, the effective composition formulation would provide full protection against the occurrence of spontaneous complement activation in a complement-containing sample for all of the analytes measured. In fact, this was the case with several polyhydroxyl compounds when they were present in sufficiently high concentrations in a preferred embodiment of the invention.
A plasma dilution of 1:50 and a serum dilution of 1:100 were used in the iC3b fragment EIA tests. The immunochemical reaction specificity of MoAb 013III-1.1.6.1 has been published previously in abstract form, W. P. Kolb, et al., Fed. Proc. 44:990 (1985).
A plasma dilution of 1:250 and a serum dilution of 1:500 were used in the C3d,g/iC3b EIA tests. […] 135:2015-2019 (1985); Y. Kanayama, et al., J. Immunol. Meth. 88:33-36 (1986). The immunochemical reaction specificity of the Cytotech MoAb 013III-31.4.3.2.2has been published previously in abstract form, W. P. Kolb, et al., FASEB Journal 2:A1834 (1988).

[2] = tested on: C4; test: polyhydroxyl compounds in Buffer B mixed with EDTA-NHP: C4d fragment EIA; format: biochemical, human; conditions: final concentration 2M, 22° C. for 48 hr
Experimental: as §1, §2

[3] = target: T2, Factor B (Homo sapiens, UniProt P00751); test: polyhydroxyl compounds in Buffer B mixed with EDTA-NHP: Bb fragment EIA; format: biochemical; conditions: final concentration 2M, 22° C. for 48 hr
T2 construct: from tissue; host or cells: normal human EDTA plasma (EDTA-NHP)
Experimental: as §1, with “control).” for “control). The EDTA-NHP samples mixed with each polyhydroxyl compound dissolved in Buffer B and the corresponding untreated controls were incubated at 22° C. for 48 hr, stored at -70° C. and subsequently assayed for C4d, iC3b, C3d,g/iC3b and Bb complement fragment levels as well as for circulating immune complex levels using the Raji Cell Replacement EIA.”
The concentrations, expressed as μg analyte/mL, of a number of different activation products of spontaneous complement activation were measured in the course of these experiments. In an effort to normalize the data obtained from the various determinations so that the results from different assays could be directly compared to one another, a percent protection value was calculated for each analyte measured. […]

[4] = tested on: complement; test: protection against spontaneous complement activation in complement-containing samples during in vitro storage (summary of fragment EIAs); format: biochemical, human
Experimental: A method for screening compounds to determine the complement preventing effectiveness thereof is described in detail in the course of the following experimental description and discussion. The method essentially comprises treating complement-containing samples with various doses of the test compounds, storing the thus-treated sample at conventional storage temperature for a minimum of about 48 hours and determining the extent of complement activation which occurs during the storage period by performing assays on the sample for various complement activation products. The results are compared with determination of the level of the same activation products at the beginning of the storage period, i.e., a non-incubated control sample. A non-treated control, comprising an identical sample diluted with phosphate buffered saline (PBS) in a volume ratio identical to that of the sample and polyhydroxyl solution is similarly assayed.
as §2
A percent protection value range of 70 to 130% was used as a criterion to define that a given invention embodiment was able to provide full protection against spontaneous complement activation for the following reasons: The coefficient of variation for the EIA kits employed in these studies ranged from 10-30% when analyte levels were measured in the very low range of values found in freshly-drawn normal human plasma samples. Therefore, in order to ensure that a given result fell within the variability range of the assays employed, a percent protection value between 70 and 130% was considered to represent a fully protective effect.

T2 sequence (P00751 26-764): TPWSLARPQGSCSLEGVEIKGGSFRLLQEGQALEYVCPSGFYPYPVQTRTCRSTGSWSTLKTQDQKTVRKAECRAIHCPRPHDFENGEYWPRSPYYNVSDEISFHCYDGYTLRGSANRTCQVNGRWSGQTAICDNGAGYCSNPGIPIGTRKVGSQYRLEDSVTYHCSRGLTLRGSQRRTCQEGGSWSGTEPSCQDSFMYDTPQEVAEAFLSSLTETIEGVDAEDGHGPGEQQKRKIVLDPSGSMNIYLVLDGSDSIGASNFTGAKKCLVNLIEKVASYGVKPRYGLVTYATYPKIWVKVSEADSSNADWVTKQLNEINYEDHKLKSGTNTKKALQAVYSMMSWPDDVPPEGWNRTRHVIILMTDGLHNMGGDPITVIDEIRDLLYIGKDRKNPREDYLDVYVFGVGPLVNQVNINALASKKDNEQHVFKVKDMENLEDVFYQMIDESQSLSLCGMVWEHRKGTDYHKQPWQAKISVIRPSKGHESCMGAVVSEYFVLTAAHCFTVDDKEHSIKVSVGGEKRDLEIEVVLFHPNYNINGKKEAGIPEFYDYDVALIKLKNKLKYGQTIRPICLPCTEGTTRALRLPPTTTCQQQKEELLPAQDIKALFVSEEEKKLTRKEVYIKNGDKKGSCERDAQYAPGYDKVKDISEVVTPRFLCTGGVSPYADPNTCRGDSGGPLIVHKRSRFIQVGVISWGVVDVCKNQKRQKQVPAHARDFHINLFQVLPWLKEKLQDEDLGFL
T1 sequence (P01024 672-1663 limits assumed): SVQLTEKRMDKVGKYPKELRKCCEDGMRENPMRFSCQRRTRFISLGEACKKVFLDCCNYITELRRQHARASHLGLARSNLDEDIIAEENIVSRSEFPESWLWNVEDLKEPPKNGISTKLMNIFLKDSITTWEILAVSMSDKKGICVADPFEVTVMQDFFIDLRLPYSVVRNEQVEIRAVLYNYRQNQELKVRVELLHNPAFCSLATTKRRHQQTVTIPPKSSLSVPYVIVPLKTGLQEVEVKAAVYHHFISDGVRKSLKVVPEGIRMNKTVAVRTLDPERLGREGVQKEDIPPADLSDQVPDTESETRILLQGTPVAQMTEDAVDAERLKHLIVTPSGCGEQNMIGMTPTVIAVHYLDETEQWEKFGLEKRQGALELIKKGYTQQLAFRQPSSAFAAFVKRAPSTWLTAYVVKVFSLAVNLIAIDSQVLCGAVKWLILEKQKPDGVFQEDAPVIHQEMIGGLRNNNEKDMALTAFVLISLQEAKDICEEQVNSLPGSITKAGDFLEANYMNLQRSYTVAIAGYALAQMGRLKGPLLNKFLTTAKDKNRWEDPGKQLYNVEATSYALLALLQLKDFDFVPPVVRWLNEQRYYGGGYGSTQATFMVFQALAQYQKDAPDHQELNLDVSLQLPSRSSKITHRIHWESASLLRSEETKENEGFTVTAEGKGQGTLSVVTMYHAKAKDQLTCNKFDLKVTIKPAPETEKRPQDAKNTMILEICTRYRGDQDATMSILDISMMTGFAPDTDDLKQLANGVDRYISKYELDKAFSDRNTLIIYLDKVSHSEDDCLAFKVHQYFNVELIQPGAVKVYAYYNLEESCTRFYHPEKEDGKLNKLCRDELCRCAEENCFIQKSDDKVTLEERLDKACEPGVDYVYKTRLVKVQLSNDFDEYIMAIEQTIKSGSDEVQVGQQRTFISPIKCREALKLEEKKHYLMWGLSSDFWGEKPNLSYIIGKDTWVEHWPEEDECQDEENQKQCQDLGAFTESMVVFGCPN
T1 sequence (P01024 23-667 limits assumed): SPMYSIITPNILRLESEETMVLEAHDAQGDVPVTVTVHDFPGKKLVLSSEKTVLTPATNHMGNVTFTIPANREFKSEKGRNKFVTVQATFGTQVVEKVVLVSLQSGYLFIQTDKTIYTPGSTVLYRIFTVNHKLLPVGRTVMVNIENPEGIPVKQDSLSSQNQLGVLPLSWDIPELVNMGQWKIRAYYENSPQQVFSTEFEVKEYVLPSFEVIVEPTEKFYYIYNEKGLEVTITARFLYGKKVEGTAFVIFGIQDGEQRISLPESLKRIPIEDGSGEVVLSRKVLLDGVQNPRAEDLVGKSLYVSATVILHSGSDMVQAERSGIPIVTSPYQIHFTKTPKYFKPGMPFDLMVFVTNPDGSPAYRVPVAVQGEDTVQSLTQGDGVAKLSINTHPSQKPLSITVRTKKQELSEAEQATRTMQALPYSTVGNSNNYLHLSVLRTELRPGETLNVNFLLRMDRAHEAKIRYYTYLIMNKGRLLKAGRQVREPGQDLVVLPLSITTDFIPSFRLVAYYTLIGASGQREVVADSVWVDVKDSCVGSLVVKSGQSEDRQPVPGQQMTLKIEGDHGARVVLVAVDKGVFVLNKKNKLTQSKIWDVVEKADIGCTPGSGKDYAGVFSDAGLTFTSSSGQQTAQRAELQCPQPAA

In the case of `OC[C@H]1O[C@@H](O)[C@H](O)[C@@H](O)[C@@H]1O` [β-D-glucose], the “prevention of spontaneous activation of C3” value [1] is reported as “completely prevented”, the “prevention of spontaneous activation of C4 (C4d fragment production)” value [2] is reported as “completely prevented” and the “prevention of spontaneous activation of Factor B (Bb fragment production)” value [3] is reported as “completely prevented”. The “final concentration identified as particularly effective” value ([4]; added to a complement-containing sample) was no less than 1.33 M, the “range of final concentrations found to provide protection against spontaneous complement activation” value ([4]; complement-containing samples during in vitro storage) was 0.5 to 4 M and the “acceptable range of final concentration at which spontaneous C activation will be prevented” value ([4]; ingredient of the formulation) was no less than 1.3 M.
